≈ marks a conversion by molar mass, not a printed value. Where “and” joins values, the source holds several entries; their conditions need not be identical. Identical values can stand only once. Like-named read-outs stand apart in the source and are kept apart here.
Assays:
[1] = tested on: Salmonella typhimurium strains TA98 and TA100; assay type: cell-based
Protocol: The Ames assay was performed at SRI Biosciences, following the standard protocols established there[55]–[57]. In brief, samples were evaluated for their ability to induce genetic damage using the plate incorporation method with Salmonella typhimurium strains TA98 and TA100 with and without a metabolic activation mixture containing 10% Aroclar-1254-induced rat-liver microsomes (S9). MBX-4132 was tested from a 5 mg/mL DMSO stock solution (the solubility limit), which provided plate concentrations up to 500 µg/plate, with serial dilutions accessing doses as low as 5 µg/plate. MBX-4132 precipitated at the two highest dose levels (500 and 100 µg/plate), but at 50 µg/plate, no precipitation was observed. […] Test articles were considered mutagenic when the mean number of revertant colonies increased in a dose-dependent manner. Some cytotoxicity was observed, but sufficient colonies were formed to allow analysis. […] Data for 2-nitrofluorene and sodium azide (positive controls) and DMSO (negative control) were included for reference.

[2] = tested on: Neisseria gonorrhoeae; experiment: MIC, microbroth dilution, G77L medium; assay type: cell-based

Nc1ccc2cc3ccccc3cc2c1 [2-Aminoanthracene, reference compound]
Average Mean Revertants/plate ([1]; TA98, 2 µg/plate, + S9): 1206.7 Revertants/plate
Mean Revertants/plate ([1]; TA98, 2 µg/plate, + S9, replicates): 1086 Revertants/plate and 1134 Revertants/plate and 1400 Revertants/plate
Mean Revertants/plate ([1]; TA98, + S9, 2 µg/plate): 1206.7
Average Mean Revertants/plate ([1]; TA100, 2 µg/plate, + S9): 1438.7 Revertants/plate
Mean Revertants/plate ([1]; TA100, 2 µg/plate, + S9, replicates): 1428 Revertants/plate and 1389 Revertants/plate and 1499 Revertants/plate
Mean Revertants/plate ([1]; TA100, + S9, 2 µg/plate): 1438.7

O=[N+]([O-])c1ccc2c(c1)Cc1ccccc1-2 [2-Nitrofluorene, reference compound]
Average Mean Revertants/plate ([1]; TA98, 5 µg/plate, no S9): 1331.3 Revertants/plate
Mean Revertants/plate ([1]; TA98, 5 µg/plate, no S9, replicates): 1220 Revertants/plate and 1245 Revertants/plate and 1529 Revertants/plate
Mean Revertants/plate ([1]; TA98, without S9, 5 µg/plate): 1331.3

O=C(Nc1nnc(-c2ccc(F)cc2)o1)N1CCc2ccccc2C1 [MBX4132]
MIC ([2]; strain MMX 6744, single data point, Micromyx): 0.27 µg/mL (≈ 0.798 µM)
MIC ([2]; strain MMX 6746, single data point, Micromyx): 0.14 µg/mL (≈ 0.414 µM)
MIC ([2]; strain MMX 6752, single data point, Micromyx): 0.27 µg/mL (≈ 0.798 µM)
MIC ([2]; strain MMX 6753, single data point, Micromyx): 0.14 µg/mL (≈ 0.414 µM)
MIC ([2]; strain MMX 6757, single data point, Micromyx): 0.07 µg/mL (≈ 0.207 µM)
MIC ([2]; strain MMX 6758, single data point, Micromyx): 0.27 µg/mL (≈ 0.798 µM)
MIC ([2]; strain MMX 6762, single data point, Micromyx): 0.27 µg/mL (≈ 0.798 µM)
MIC ([2]; strain MMX 6767, single data point, Micromyx): 0.14 µg/mL (≈ 0.414 µM)
MIC ([2]; strain MMX 6771, single data point, Micromyx): 0.14 µg/mL (≈ 0.414 µM)
MIC ([2]; strain MMX 6793, single data point, Micromyx): 0.14 µg/mL (≈ 0.414 µM)
MIC ([2]; strain MMX 6797, single data point, Micromyx): 0.14 µg/mL (≈ 0.414 µM)
MIC ([2]; strain MMX 6803, single data point, Micromyx): 0.27 µg/mL (≈ 0.798 µM)
MIC ([2]; strain MMX 6812, single data point, Micromyx): 0.27 µg/mL (≈ 0.798 µM)
MIC ([2]; strain MMX 6818, single data point, Micromyx): 0.27 µg/mL (≈ 0.798 µM)
MIC ([2]; strain MMX 6819, single data point, Micromyx): 0.14 µg/mL (≈ 0.414 µM)
MIC ([2]; strain MMX 6879, single data point, Micromyx): 0.14 µg/mL (≈ 0.414 µM)
MIC ([2]; strain MMX 6921, single data point, Micromyx): 0.53 µg/mL (≈ 1.57 µM)
MIC ([2]; strain MMX 6922, single data point, Micromyx): 0.53 µg/mL (≈ 1.57 µM)
MIC ([2]; strain MMX 6983, single data point, Micromyx): 0.53 µg/mL (≈ 1.57 µM)
MIC ([2]; strain MMX 6989, single data point, Micromyx): 0.14 µg/mL (≈ 0.414 µM)
MIC ([2]; strain MMX 6990, single data point, Micromyx): 0.14 µg/mL (≈ 0.414 µM)
MIC ([2]; strain MMX 6992, single data point, Micromyx): 0.14 µg/mL (≈ 0.414 µM)
MIC ([2]; strain MMX 6996, single data point, Micromyx): 0.27 µg/mL (≈ 0.798 µM)
MIC ([2]; strain MMX 6998, single data point, Micromyx): 0.53 µg/mL (≈ 1.57 µM)
MIC ([2]; strain MMX 7002, single data point, Micromyx): 0.27 µg/mL (≈ 0.798 µM)
MIC ([2]; strain MMX 7005, single data point, Micromyx): 0.03 µg/mL (≈ 0.0887 µM)
MIC ([2]; strain MMX ATCC 49226, single data point, Micromyx): 0.27 µg/mL (≈ 0.798 µM)

O=C(Nc1nnc(-c2ccc(F)cc2)o1)c1ccccc1 [MBXC1-4227]
MIC ([2]; Neisseria gonorrhoeae ATCC 49226, source data, individual replicates): 0.8852 µg/mL and 0.4426 µg/mL

[N-]=[N+]=[N-].[Na+] [Sodium Azide, reference compound]
Average Mean Revertants/plate ([1]; TA100, 5 µg/plate, no S9): 2029.0 Revertants/plate
Mean Revertants/plate ([1]; TA100, 5 µg/plate, no S9, replicates): 1978 Revertants/plate and 2032 Revertants/plate and 2077 Revertants/plate
Mean Revertants/plate ([1]; TA100, without S9, 5 µg/plate): 2029.0

From publication PMC7979765, “trans-Translation inhibitors bind to a novel site on the ribosome and clear Neisseria gonorrhoeae in vivo” (Nature Communications, 2021)
